Experiments:
Vpr [1] = settings: typical of multiple assays, FIG. 1
From the text: Accordingly to test if additional anti-glucocorticoids might mediate similar effects, screening assays were developed based on the above Vpr activities which include inhibition of antiviral activity, rescue of the inhibition of cell proliferation and viral transactivation studies. Mifepristone analogues were chosen by SAR analysis.

Rip-1 = assay: Vpr mediated stimulation of Rip-1 nuclear translocation; format: cell-based, human
From the text: (§1) The Vpr gene of HIV-1 encodes a 15 KD virion associated protein which functions as a regulator of cellular processes linked to the HIV life cycle. We observed the interaction of a 41-kD cytosolic viral protein R interacting protein-1 (rip-1), associated with Vpr in vitro, and co-localizes in cells ex vivo. […] This protein co-elutes with Vpr in an immunoaffmity system and can be cross-linked with Vpr to form a 58 Kd complex. […] The Vpr mediated stimulation of Rip-1 nuclear translocation, and the viral complementation accomplished with exogenous Vpr protein was mimicked by GR II stimulating steroids. These effects were inhibited by mifepristone, a well-characterized GR II pathway inhibitor. In addition, the levels of LTR-CAT induction attained by Vpr protein were similarly obtained by GR activating steroids. Vpr protein induced CAT activity in cells transfected with a plasmid that contains CAT linked to HIV-1 LTR, pLTR-CAT, and co-localized with Dexamethasone as to the site of its induction of CAT activity from a panel of HIV-1 LTR CAT deletion mutants. In addition, Vpr stimulated the formation of the DNA binding complex which associates with GRE sequences during the glucocorticoid mediated transactivation process.

Vpr [2] = assay: Viral complementation accomplished with exogenous Vpr protein; format: cell-based, HIV-1
From the text: as §1

C#C[C@]1(O)CCC2C3CCC4=C(CCC(=O)C4)C3CCC21C (stereo partly drawn) [Compound D2, 17-α-ethynyl-17-β-hydroxyestr-5(10)-En-3-one]
activity in the above assays (Vpr-based screening assays) (Vpr [1]): some activity

CC#C[C@]1(O)CC[C@H]2[C@@H]3CCC4=CC(=O)CCC4=C3[C@@H](c3ccc(N(C)C)cc3)C[C@@]21C [mifepristone]
inhibition of Vpr mediated stimulation of Rip-1 nuclear translocation (Rip-1): inhibited
inhibition of viral complementation accomplished with exogenous Vpr protein (Vpr [2]): inhibited

CC(=O)C1CCC2C3C=CC4=CC(=O)CCC4(C)C3CCC12C (stereo not shown) [Compound D1, Pregna4,6,-diene-3,20-dione]
activity in the above assays (Vpr-based screening assays) (Vpr [1]): some activity
